# Target: T1, P. aeruginosa PGDH (SerA) (Pseudomonas aeruginosa, UniProt Q9I6H5)
# T1 construct: full-length ORF, N-terminal GST fusion (pGEX-6P-1), GST cut off on resin by protease, expressed in E. coli BL21, 44 kDa
# T1 sequence (Q9I6H5 1-409): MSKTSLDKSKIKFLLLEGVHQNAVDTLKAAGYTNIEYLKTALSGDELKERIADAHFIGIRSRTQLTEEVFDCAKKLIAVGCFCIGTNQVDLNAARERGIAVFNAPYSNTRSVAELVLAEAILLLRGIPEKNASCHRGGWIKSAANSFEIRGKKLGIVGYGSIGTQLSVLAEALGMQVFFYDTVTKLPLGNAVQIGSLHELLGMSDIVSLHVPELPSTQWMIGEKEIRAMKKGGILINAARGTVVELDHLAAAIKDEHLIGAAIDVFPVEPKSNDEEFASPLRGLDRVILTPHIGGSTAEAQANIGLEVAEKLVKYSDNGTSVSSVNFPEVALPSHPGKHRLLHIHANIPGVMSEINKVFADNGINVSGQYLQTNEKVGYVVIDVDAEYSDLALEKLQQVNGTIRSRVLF
# Assay: NADH formation at […] nm
# Format: biochemical
row,SMILES,IC50 [mM]
1,N[C@H](CO)C(=O)O [D-serine],76
2,N[C@@H](CO)C(=O)O [L-serine],0.63

# From paper PMC6600881 (Gut Pathogens, 2019)
